Laboratory results reported in publication PMC6352943, “Novel pyrazolo[3,4-d]pyrimidines: design, synthesis, anticancer activity, dual EGFR/ErbB2 receptor tyrosine kinases inhibitory activity, effects on cell cycle profile and caspase-3-mediated apoptosis” (Journal of Enzyme Inhibition and Medicinal Chemistry, 2019).
Values joined by “and” are separate entries in the source; they are usually repeats but may differ in a detail not shown here. Identical values can stand only once.

What was measured:
CAKI-1 = assay: NCI 60 cell line single dose screen (SRB); assay type: cell-based; settings: Homo sapiens; CAKI-1 (renal cancer), single dose 10^−5 M, 48 h; read-out: Growth inhibition percentage
Method in brief: (§1)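 Cells were plated and grown 24 h at 37 °C, 5% CO2 before compound addition from DMSO stock, then exposed 48 h. Adherent cells were fixed with cold TCA (final 10%) and suspension cells with 16% TCA. SRB-stained protein was read at 515 nm and percent growth was calculated against time-zero and untreated plates.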

UACC-62 = assay: NCI 60 cell line single dose screen (SRB); assay type: cell-based; settings: Homo sapiens; UACC-62 (melanoma), single dose 10^−5 M, 48 h; read-out: Growth inhibition percentage
Method in brief: as §1

human active caspase-3 = assay: Active caspase-3 level (ELISA) in OVCAR-4 cells; assay type: cell-based; settings: OVCAR-4 cells treated at IC50 for 24 h
Protocol: The level of human active caspase-3 protein was evaluated using Invitrogen (Catalog KHO1091) ELISA kit. The manufacturer’s instructions were followed in the following procedures. Add 100 μL of the standard diluent buffer to the zero standard wells. Add 100 μL of standards and controls or diluted samples to the appropriate microtitre wells. Cover wells with and incubate for 2 h at room temperature. Thoroughly aspirate or decant solution from wells and discard the liquid. Pipette 100 μL of caspase-3 (active) detection antibody solution into each well. Cover plate and incubate for 1 h at room temperature. Add 100 μL Anti-Rabbit IgG HRP working solution to each well. Cover wells with the plate cover and incubate for 30 min at room temperature. Add 100 μL of stabilised chromogen to each well. The liquid in the wells will begin to turn blue. Incubate for 30 min at room temperature. Stop solution has been added to each well. The solution in the wells should change from blue to yellow. Read the plate within 2 h after adding the stop solution. Use a curve fitting software to generate the standard curve.
EGFR and ErbB2 tyrosine kinase inhibitors are well known to potentiate the intrinsic apoptotic pathway via increase in caspase-3 enzyme activity[34]^,[35].

NCI-H226 = assay: MTT cell viability assay; assay type: cell-based; settings: Homo sapiens, NCI-H226 lung cancer, 48 h, mean ± SD of three experiments, read-out: IC50 (concentration required for 50% inhibition of cell viability)
Protocol: Cell Line cells were obtained from American Type Culture Collection, cells were cultured using Dulbecco's Modified Eagle's medium (DMEM) (Invitrogen/Life Technologies) supplemented with 10% foetal bovine serum (FBS) (Hyclone), 10 μg/mL of insulin (Sigma), and 1% penicillin-streptomycin. All of the other chemicals and reagents were from Sigma, or Invitrogen. Plate cells (cells density 1.2 – 1.8 × 10,000 cells/well) in a volume of 100 µL complete growth medium and 100 μL of the tested compound per well in a 96-well plate for 24 h before the MTT assay.
Remove culture medium to a centrifuge tube. […] Add 2.0 to 3.0 ml of Trypsin EDTA solution to flask and observe cells under an inverted microscope until cell layer is dispersed. Add 6 to 8 ml of complete growth medium and aspirate cells by gently pipetting. […]
The 3–(4, 5-dimethylthiazol-2-yl)-2,5-diphenyltetrazolium bromide (MTT) method[30] of monitoring in vitro cytotoxicity is well suited for use with multiwell plates. […] The number of living cells in the presence or absence (control) of the various test compounds is directly proportional to the intensity of the blue colour, measured by spectrophotometry using (ROBONIK P2000 Spectrophotometer) at a wavelength of 570 nm. Measure the background absorbance of multiwell plates at 690 nm and subtract from the 570 nm measurement. […]

NCI-H460 (EGFR-WT) = assay: MTT cell viability assay; assay type: cell-based, human
Protocol: All of the other chemicals and reagents were from Sigma, or Invitrogen.
Measure the background absorbance of multiwell plates at 690 nm and subtract from the 570 nm measurement. […] Each experiment was carried out in triplicate.

Structure (SMILES) | inhibition at 10 µM (CAKI-1) [%] | inhibition at 10 µM (UACC-62) [%] | Increase in the level of active caspase-3 compared to control (human active caspase-3) | Caspase3 conc. (human active caspase-3; mean ± SD of three experiments) [pg/mL] | IC50 (NCI-H226) [µM] | IC50 (NCI-H460 (EGFR-WT); Homo sapiens, NCI-H460 (EGFR-WT) lung cancer, MTT, 48 h, mean ± SD of three experiments, read-out: IC50 (concentration required for 50% inhibition of cell viability)) [µM] | Potency relative to Erlotinib (fold more potent) (NCI-H460 (EGFR-WT); NCI-H460 EGFR-WT, from IC50 values) [fold]
Cc1nn(-c2ccc(F)cc2)c2ncnc(Cl)c12 [Compound 6, 4-Chloro-1–(4-fluorophenyl)-3-methyl-1H-pyrazolo[3,4-d]pyrimidine] | 1.02 | 12.6 |  |  |  |  | 
Cc1nn(-c2ccc(F)cc2)c2ncnc(Nc3ccc(F)c(Cl)c3)c12 [Compound 7d, N-(3-Chloro-4-fluorophenyl)-1–(4-fluorophenyl)-3-methyl-1H-pyrazolo[3,4-d] pyrimidin-4-amine] |  |  | 10.8 fold and 11 fold | 568.50 ± 14.0 | 17.4 ± 2.13 | 18.7 ± 0.71 | ~3.5
